Experimental data reported in US11453666B2, “Autotaxin inhibitory compounds” (Cancer Research Technology Limited, priority 2015, dated 2022).
Like-named read-outs stand apart in the source and are kept apart here.

Target: human recombinant ATX (Homo sapiens, UniProt Q13822)
Assay: Autotaxin (ATX) activity Quanta Red assay
Type: biochemical
Procedure: The reaction was stopped after 2 hours with a 20 μL addition of Quanta Red Stop solution (1:20 dilution in distilled water). The above-described mixture with DMSO alone was used as a positive control whereas that with DMSO alone without ATX was taken as a negative control.
Fluorescence was determined in a BMG Labtech Pherastar plus plate reader ([…]). Data were analysed using Excel fit software. IC50 values were determined in duplicate.

[1] = read-out: Activity (ATX activity, Quanta Red assay; IC50)
[2] = Table 2: additional compounds tested for ATX activity (Quanta Red Assay), read-out: Activity
[3] = human recombinant ATX 0.8 μg/mL, 2 hours at room temperature, IC50 determined in duplicate, read-out: Activity (ATX activity, Quanta Red assay; IC50)

SMILES | IC50 [1] [nM] | also measured
CC[C@H](NC(=O)CCc1nc2cccnc2n1Cc1ccc(F)c(F)c1)c1ccccc1 [Example 89, 3-[3-(3,4-Difluoro-benzyl)-3H-imidazo[4,5-b]pyridin-2-yl]-N-((S)-1-phenyl-propyl)-propionamide] | 8 | –
O=C(CCc1nc2cccnc2n1Cc1ccc(OC(F)(F)F)cc1)NCC1CCN(C(=O)C2CC2)CC1 [Example 215, N-(1-Cyclopropanecarbonyl-piperidin-4-ylmethyl)-3-[3-(4-trifluoromethoxy-benzyl)-3H-imidazo[4,5-b]pyridin-2-yl]-propionamide] | 81 | –
COc1ccc(Cn2c(CCC(=O)NCc3cccc(Cl)c3)nc3cccnc32)cc1 [Example 231, N-(3-Chloro-benzyl)-3-[3-(4-methoxy-benzyl)-3H-imidazo[4,5-b]pyridin-2-yl]-propionamide] | – | IC50 [2]: 200 nM
CN(C)CCCOc1ccc(CNC(=O)CCc2nc3cccnc3n2Cc2ccc(OC(F)(F)F)cc2)cc1 [Example 10, N-[4-(3-Dimethylamino-propoxy)-benzyl]-3-[3-(4-trifluoromethoxy-benzyl)-3H-imidazo[4,5-b]pyridin-2-yl]-propionamide] | 2 | –
COc1ccc(CNC(=O)CCc2nc3cc(C)cnc3n2Cc2ccc(OC(F)(F)F)cc2)cc1F [Example 52, N-(3-Fluoro-4-methoxy-benzyl)-3-[6-methyl-3-(4-trifluoromethoxy-benzyl)-3H-imidazo[4,5-b]pyridin-2-yl]-propionamide] | 29 | –
C[C@H](NC(=O)CCc1nc2cccnc2n1Cc1ccc(OC(F)(F)F)cc1)c1ccc(N2CCCNCC2)cc1 [Example 170, N-[(S)-1-(4-[1,4]Diazepan-1-yl-phenyl)-ethyl]-3-[3-(4-trifluoromethoxy-benzyl)-3H-imidazo[4,5-b]pyridin-2-yl]-propionamide] | 2 | –
CN(C)c1ccc(CNC(=O)CCc2nc3cccnc3n2Cc2ccc(OC(F)(F)F)cc2)cc1 [Example 31, N-(4-Dimethylamino-benzyl)-3-[3-(4-trifluoromethoxy-benzyl)-3H-imidazo[4,5-b]pyridin-2-yl]-propionamide] | 6 | –
C[C@@H](NC(=O)CCc1nc2cccnc2n1Cc1ccccc1)c1ccccc1 [Example 4, 3-(3-Benzyl-3H-imidazo[4,5-b]pyridin-2-yl)-N-((R)-1-phenyl-ethyl)-propionamide] | – | IC50 [3]: 2630 nM
O=C(CCc1nc2cccnc2n1Cc1ccc(F)c(F)c1)NCc1ccncc1 [Example 82, 3-[3-(3,4-Difluoro-benzyl)-3H-imidazo[4,5-b]pyridin-2-yl]-N-pyridin-4-ylmethyl-propionamide] | 987 | –
C[C@H](NC(=O)OCc1nc2cccnc2n1Cc1ccc(F)cc1)c1ccc(F)cc1 [Example 166, [(S)-1-(4-fluoro-phenyl)-ethyl]-carbamic acid 3-(4-fluoro-benzyl)-3H-imidazo[4,5-b]pyridin-2-ylmethyl Ester] | 336 | –
C[C@H](NC(=O)CCc1nc2cccnc2n1Cc1ccc(OCc2ccccc2)cc1)c1ccc(F)cc1 [Example 80, 3-[3-(4-Benzyloxy-benzyl)-3H-imidazo[4,5-b]pyridin-2-yl]-N-[(S)-1-(4-fluoro-phenyl)-ethyl]-propionamide] | 844 | –
O=C(CCc1nc2cccnc2n1Cc1ccc(OC(F)(F)F)cc1)N[C@H](Cc1ccccc1)C(=O)O [Example 195, (R)-3-Phenyl-2-{3-[3-(4-trifluoromethoxy-benzyl)-3H-imidazo[4,5-b]pyridin-2-yl]-propionylamino}-propionic acid] | 1 | –
C[C@@H](c1ccc(F)cc1)n1c(CCC(=O)N[C@H](Cc2ccccc2)C(=O)O)nc2cccnc21 [Example 201, (R)-2-(3-{3-[(S)-1-(4-Fluoro-phenyl)-ethyl]-3H-imidazo[4,5-b]pyridin-2-yl}-propionylamino)-3-phenyl-propionic acid] | 598 | –
C[C@H](NC(=O)CCc1nc2cccnc2n1Cc1ccc(OC(F)(F)F)cc1)c1ccc(N2CCN(C)CC2)cc1 [Example 167, N—{(S)-1-[4-(4-methyl-piperazin-1-yl)-phenyl]-ethyl}-3-[3-(4-trifluoromethoxy-benzyl)-3H-imidazo[4,5-b]pyridin-2-yl]-propionamide] | 1 | –
C[C@H](NC(=O)CCc1cc2cccnc2n1Cc1ccc(OC(F)(F)F)cc1)c1ccc(F)cc1 [Example 137, N—[(S)-1-(4-fluoro-phenyl)-ethyl]-3-[1-(4-trifluoromethoxy-benzyl)-1H-pyrrolo[2,3-b]pyridin-2-yl]-propionamide] | 10 | –
O=C(CCc1nc2cccnc2n1Cc1ccccc1)NCc1ccc(F)cc1 [Example 223, 3-(3-Benzyl-3H-imidazo[4,5-b]pyridin-2-yl)-N-(4-fluoro-benzyl)-propionamide] | – | IC50 [2]: 324 nM
Cc1ccccc1CNC(=O)CCc1nc2cccnc2n1Cc1ccccc1 [Example 5, 3-(3-Benzyl-3H-imidazo[4,5-b]pyridin-2-yl)-N-(2-methyl-benzyl)-propionamide] | 854 | –

SMILES | IC50 [1] [nM] | also measured
COc1ccc(CNC(=O)CCc2nc3cccnc3n2Cc2cccc(C)c2)cc1 [Example 118, N-(4-Methoxy-benzyl)-3-[3-(3-methyl-benzyl)-3H-imidazo[4,5-b]pyridin-2-yl]-propionamide] | 726 | –
O=C(CCc1nc2cccnc2n1Cc1ccc(OC(F)(F)F)cc1)NCC1CCCCC1 [Example 42, N-Cyclohexylmethyl-3-[3-(4-trifluoromethoxy-benzyl)-3H-imidazo[4,5-b]pyridin-2-yl]-propionamide] | 11 | –
Cc1ccc2nc(CCC(=O)N[C@@H](C)c3ccc(Cl)cc3)n(Cc3ccc(F)cc3)c2n1 [Example 79, N-[(S)-1-(4-Chloro-phenyl)-ethyl]-3-[3-(4-fluoro-benzyl)-5-methyl-3H-imidazo[4,5-b]pyridin-2-yl]-propionamide] | 94 | –
O=C(CCc1nc2cccnc2n1Cc1ccc(F)c(F)c1)NCC1CCCCC1 [Example 71, N-Cyclohexylmethyl-3-[3-(3,4-difluoro-benzyl)-3H-imidazo[4,5-b]pyridin-2-yl]-propionamide] | 243 | –
O=C(CCc1nc2cccnc2n1Cc1ccc(OC(F)(F)F)cc1)N[C@H]1CCCc2ccccc21 [Example 38, N-(S)-1,2,3,4-Tetrahydro-naphthalen-1-yl-3-[3-(4-trifluoromethoxy-benzyl)-3H-imidazo[4,5-b]pyridin-2-yl]-propionamide] | 9 | –
C[C@H](NC(=O)CS(=O)(=O)c1nc2cccnc2n1Cc1ccc(OC(F)(F)F)cc1)c1ccc(F)cc1 [Example 150, N—[(S)-1-(4-fluoro-phenyl)-ethyl]-2-[3-(4-trifluoromethoxy-benzyl)-3H-imidazo[4,5-b]pyridine-2-sulfonyl]-acetamide] | – | IC50 [3]: 2880 nM
O=C(CCc1nc2cccnc2n1Cc1ccc(F)cc1)NCc1ccc(F)cc1 [Example 94, N-(4-Fluoro-benzyl)-3-[3-(4-fluoro-benzyl)-3H-imidazo[4,5-b]pyridin-2-yl]-propionamide] | 25 | –
COc1ccc(Cn2c(CCC(=O)N(C)Cc3ccc(F)cc3)nc3cccnc32)cc1 [Example 119, N-(4-Fluoro-benzyl)-3-[3-(4-methoxy-benzyl)-3H-imidazo[4,5-b]pyridin-2-yl]-N-methyl-propionamide] | 631 | –
C[C@H](NC(=O)CSc1nc2cccnc2n1Cc1ccc(OC(F)(F)F)cc1)c1ccc(F)cc1 [Example 145, N—[(S)-1-(4-fluoro-phenyl)-ethyl]-2-[3-(4-trifluoromethoxy-benzyl)-3H-imidazo[4,5-b]pyridin-2-ylsulfanyl]-acetamide] | – | IC50 [3]: 2 nM
Cc1cnc2c(c1)nc(CCC(=O)N[C@@H](C)c1ccc(Cl)cc1)n2Cc1ccc(F)cc1 [Example 213, N-[(S)-1-(4-Chloro-phenyl)-ethyl]-3-[3-(4-fluoro-benzyl)-6-methyl-3H-imidazo[4,5-b]pyridin-2-yl]-propionamide] | 17 | –
C[C@H](NC(=O)CCc1nc2cccnc2n1Cc1ccc(OC(F)(F)F)cc1)[C@H](O)c1ccccc1 [Example 41, N-((1S,2R)-2-Hydroxy-1-methyl-2-phenyl-ethyl)-3-[3-(4-trifluoromethoxy-benzyl)-3H-imidazo[4,5-b]pyridin-2-yl]-propionamide] | 10 | –
C[C@H](NC(=O)CCc1nc2cccnc2n1Cc1ccc(O)cc1)c1ccc(F)cc1 [Example 155, N—[(S)-1-(4-fluoro-phenyl)-ethyl]-3-[3-(4-hydroxy-benzyl)-3H-imidazo[4,5-b]pyridin-2-yl]-propionamide] | 254 | –
C[C@H](NC(=O)NCc1nc2cccnc2n1Cc1ccc(F)c(F)c1)c1ccc(N2CCOCC2)cc1 [Example 163, 1-[3-(3,4-Difluoro-benzyl)-3H-imidazo[4,5-b]pyridin-2-ylmethyl]-3-[(S)-1-(4-morpholin-4-yl-phenyl)-ethyl]-urea] | 309 | –
C[C@H](NC(=O)CCc1nc2cccnc2n1Cc1ccc(Br)cc1)c1ccc(F)cc1 [Example 16, 3-[3-(4-Bromo-benzyl)-3H-imidazo[4,5-b]pyridin-2-yl]-N-[(S)-1-(4-fluoro-phenyl)-ethyl]-propionamide] | 3 | –
O=C(CCc1nc2cccnc2n1Cc1ccc(F)c(F)c1)NCc1ccccn1 [Example 75, 3-[3-(3,4-Difluoro-benzyl)-3H-imidazo[4,5-b]pyridin-2-yl]-N-pyridin-2-ylmethyl-propionamide] | 424 | –
CN(C)CCOc1ccc(CNC(=O)CCc2nc3cccnc3n2Cc2ccc(OC(F)(F)F)cc2)cc1 [Example 19, N-[4-(2-Dimethylamino-ethoxy)-benzyl]-3-[3-(4-trifluoromethoxy-benzyl)-3H-imidazo[4,5-b]pyridin-2-yl]-propionamide] | 4 | –
